In general, inhibition refers to the relative decrease from the control value, in per cent. Lower therefore signals a weak effect.

For the assay, the target named is T1, AMPK A2/B1/G1 (Homo sapiens, UniProt P54646).
T1 construct: purchased Thermo Fisher Scientific (Life Technologies) SelectScreen
The assay is described as follows: SelectScreen Z'LYTE. The class given is biochemical. The gist of the method:
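SelectScreen broad panel; activity (Z'LYTE, Adapta) plus binding formats. ATP: Km app for CSF1R Z'LYTE; 10 for CAMK1 Adapta. Readout = % per kinase.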

T1 sequence (P54646 whole entry): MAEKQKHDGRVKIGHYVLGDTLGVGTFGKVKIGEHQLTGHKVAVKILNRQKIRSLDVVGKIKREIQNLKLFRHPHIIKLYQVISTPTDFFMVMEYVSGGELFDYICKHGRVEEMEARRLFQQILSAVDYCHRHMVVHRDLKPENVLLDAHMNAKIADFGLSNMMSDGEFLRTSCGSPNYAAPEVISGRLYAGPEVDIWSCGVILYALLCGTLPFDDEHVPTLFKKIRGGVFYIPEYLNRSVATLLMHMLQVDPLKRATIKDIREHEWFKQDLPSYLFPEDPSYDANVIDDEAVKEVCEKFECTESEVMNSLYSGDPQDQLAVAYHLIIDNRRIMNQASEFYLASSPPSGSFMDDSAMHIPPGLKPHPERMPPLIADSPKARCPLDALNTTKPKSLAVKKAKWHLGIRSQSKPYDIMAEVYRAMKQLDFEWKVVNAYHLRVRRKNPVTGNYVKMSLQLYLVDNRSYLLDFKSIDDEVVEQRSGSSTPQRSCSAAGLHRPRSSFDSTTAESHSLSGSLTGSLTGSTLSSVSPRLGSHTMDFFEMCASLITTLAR
T1 sequence (Q9Y478 whole entry partner): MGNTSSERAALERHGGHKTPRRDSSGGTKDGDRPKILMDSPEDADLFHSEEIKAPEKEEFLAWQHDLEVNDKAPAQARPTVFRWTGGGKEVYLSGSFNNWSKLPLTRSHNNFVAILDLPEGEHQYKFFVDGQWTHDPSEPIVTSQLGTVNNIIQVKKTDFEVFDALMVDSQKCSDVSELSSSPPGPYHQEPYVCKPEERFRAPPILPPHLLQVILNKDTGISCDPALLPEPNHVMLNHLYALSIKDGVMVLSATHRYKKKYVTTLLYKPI
T1 sequence (P54619 whole entry partner): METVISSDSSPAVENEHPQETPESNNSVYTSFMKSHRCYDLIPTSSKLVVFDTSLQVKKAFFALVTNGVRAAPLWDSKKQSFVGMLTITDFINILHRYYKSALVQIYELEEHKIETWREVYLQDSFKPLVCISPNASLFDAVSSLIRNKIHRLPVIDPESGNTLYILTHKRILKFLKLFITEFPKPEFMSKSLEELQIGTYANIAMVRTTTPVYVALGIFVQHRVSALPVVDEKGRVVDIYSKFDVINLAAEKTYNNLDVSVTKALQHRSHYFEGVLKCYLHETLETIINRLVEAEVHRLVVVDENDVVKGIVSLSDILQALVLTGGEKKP

`CN(C(=O)CN1CCOCC1)c1ccc2sc3c(-c4cccc5c(=O)cc(N6CC7CCC(C6)O7)oc45)cccc3c2c1` [NU5455] returned an inhibition at 1 µM of 2.6%.

For the origin of these results see PMC6934184, “Selective DNA-PKcs inhibition extends the therapeutic index of localized radiotherapy and chemotherapy” (The Journal of Clinical Investigation, 2019).
